Laboratory results as given in patent publication US11752077B2, “Oily moisturizer and topical skin composition containing same” (The Nisshin OilliO Group, Ltd., priority 2017, dated 2023).

Key:
[1] = test system: stratum corneum moisture content of the skin (forearm); assay: Evaluation test of moisture retention effect upon single application (esterified products, oils, glycerol applied neat); assay type: in vivo, human
Method: In the present invention, the moisture retention effect of the esterified product, namely the improvement effect on the moisture retention function of the skin, was evaluated based on the change in the stratum corneum moisture content of the skin before and after application of the esterified product. Measurement of the stratum corneum moisture content was performed using a stratum corneum moisture content measuring device (device name: SKICON-200), manufactured by IBS Co., Ltd. This stratum corneum moisture content measuring device is a device that is widely used for measuring the moisturestate of the stratum corneum, and is a device that measures the electrical conductivity (μS) of the stratum corneum. The larger the skin moisture content, the higher the electrical conductivity of the stratum corneum becomes. Accordingly, the electrical conductivity (μS) measured using the stratum corneum moisture content measuring device was deemed to indicate the stratum corneum moisture content. The skin moisture retention effect of each test sample was evaluated by applying the test sample directly to washed skin, and then measuring the change in the skin stratum corneum moisture content after wiping the test sample off the skin using a cotton swab soaked in hexane. The skin stratum corneum moisture content measurement test was conducted on a plurality of panelists in the season from autumn to spring when the skin is prone to dryness. Further, in order to remove the effects of room temperature and humidity on the measurement results, the tests were performed in a room in which the room temperature had been adjusted to 18 to 22° C. and the humidity had been adjusted to 40 to 55% RH. Specifically, first, the forearm of the person was washed with soap, and the person was then held for 30 minutes in a room in which the room temperature and the humidity had been controlled within the above ranges to acclimatize the skin of the forearm to the measurement environment, thus completing preparations for the initial conditions for measurement. […] Subsequently, 40 μL of the test sample being evaluated was applied uniformly to the square measurement region of the forearm. Sixty minutes after the application, a cotton swab that had been immersed in hexane was used to wipe off the test sample, and 30 minutes after the test sample had been wiped off, the stratum corneum moisture content of the wiped region of the skin (the stratum corneum moisture content upon test completion) was measured. Further, when evaluating the moisture retention effect of the test sample, in order to consider and subtract the change in the state of the skin during the measurement period, the stratum corneum moisture content of a portion of the skin to which the sample had not been applied was also measured prior to test commencement and upon test completion, and the change in the stratum corneum moisture content of this uncoated portion was calculated. A moisture retention effect value (μS) was determined from the measured values for the skin stratum corneum moisture content based on the formulas below. The moisture retention effect value (μS) for each test sample was calculated as the average value for the moisture retention effect values (μS) across five panelists. […] Based on the moisture retention effect value (μS) for each test sample, the moisture retention effect of each test sample was evaluated using the criteria in Table 43. […] Using various commercially available oils and glycerol, the <Evaluation of moisture retention upon single application> described above was conducted to ascertain the moisture retention effect. […] The glycerol of Comparative Example 21 is a typical aqueous moisturizer, and is widely used as a moisturizer. […] With the exception of changing the removal solvent from hexane to water, the evaluation conditions were the same as those described above in the <Evaluation of moisture retention upon single application>.

[2] = test system: stratum corneum moisture content of the skin (forearm); assay: as above; assay type: in vivo, human; conditions: 60 minutes after application, glycerol still applied to the skin surface, prior to removal using water
[3] = esterified product applied neat, 40 μL on 3 cm x 3 cm forearm region, wiped off with hexane after 60 minutes, measured 30 minutes later, average of five panelists
[4] = esterified product applied neat, 40 μL on forearm, wiped off with hexane after 60 minutes, measured 30 minutes later, five panelists
[5] = single application of commercially available oil or glycerol to skin, measured after removal (hexane swab; water swab for glycerol)
[6] = single application of commercially available oil or glycerol, class from moisture retention effect value

## CC(C)CCCCCCCCCCCCCCC(=O)OCC(C)C [Comparative Example 9, isobutyl isostearate]
[1]; [3]
  Moisture retention effect value: 47 μS

## caprylate ester of ditrimethylolpropane [Example 2]
[1]; [3]
  Moisture retention effect value: 87 μS
[1]; [4]
  Moisture retention evaluation result: a1 (70 or greater)

## CCCCC(CC)C(=O)OCC(COC(=O)C(CC)CCCC)OC(=O)C(CC)CCCC (centres unmarked) [Comparative Example 14, glyceryl tri(2-ethylhexanoate)]
[1]; [5]
  Moisture retention effect value: 32 μS
[1]; [6]
  Moisture retention evaluation result: e1 (less than 40)

## caprate ester of ditrimethylolpropane [Example 3]
[1]; [3]
  Moisture retention effect value: 70 μS
[1]; [4]
  Moisture retention evaluation result: a1 (70 or greater)

## OCC(O)CO [Comparative Example 21, glycerol]
[1]; removal after 60 minutes with cotton swab immersed in water rather than hexane, measured 30 minutes later
  Moisture retention effect value: 8 μS
[1]; [5]
  Moisture retention effect value: 8 μS
[1]; [6]
  Moisture retention evaluation result: e1 (less than 40)
[2]
  increase in the electrical conductivity that corresponds with the moisture retention effect value: 477 μS
